Measured values taken from BindingDB's records for doi:10.1016/j.bmcl.2015.12.063 (Aristotelian University of Thessaloniki, 2016).

Assay: Inhibition of soybean lipoxygenase assessed as formation of 13-hydroperoxylinoleic acid after 7 mins

IC50: 12 µM
Compound: COc1ccc2cc(C(C)C(=O)N3CCSCC3)ccc2c1 (stereo unspecified)
